According to patent US20210128645A1, “INTESTINAL MICROBE HAVING D-PSICOSE-RESPONSIVE PROLIFERATION” (priority 2018, published 2021):

Experiments:
[1] = tested on: genus Atopobium (intestinal microbe, SEQ ID NO:1 OTU); test: 16S rRNA gene analysis of intestinal microbiota in fecal samples of D-psicose-administered mice; format: in vivo, mouse; conditions: 5.0% D-psicose water, high-fat diet, fecal samples at week 5, vs tap water control (FIG. 4)
Description: The relative abundance of the genus Atopobium in the fecal samples at week 5 from start of rearing is shown. The relative abundance is calculated as the percentage of the genus Atopobium in the total reads. Control (white): high-fat diet+tap water, D-psicose (black): high-fat diet +5.0% D-psicose. The Mann-Whitney U test was used in significance testing. A p-value of 0.001 or less is considered significant and indicated by P<0.001: in the figure.
(§1) Twenty eight 6-week-old male C57BL/6J mice (CLEA Japan, Inc.) were provided and fed a normal diet CE-2 (CLEA Japan, Inc.) and tap water for 2 weeks, followed by acclimation. The mice were divided into 4 groups (7 mice per group): (i) tap water-administered group, (ii) D-psicose water-administered group, (iii) tap water and antibiotic-administered group, and (iv) D-psicose water and antibiotic-administered group. The experiment was started at 8 weeks old. […] During the experimental period, the body weight of the mice, the water intake, and the food intake were measured weekly, and the feces were collected. […] At week 9 (17 weeks old) from the start of the experiment, the fasting blood glucose level, an indicator of diabetes, was measured. After 15-hour fasting, the side of the tail was pricked with a syringe needle (Terumo Corporation), and the blood glucose level was measured by using a glucometer (Nipro StatStrip XP3). […]

[2] = tested on: male C57BL/6J mice fed a high-fat diet; test: High-fat diet mouse experiment with D-psicose drinking water: body weight gain and fasting blood glucose; format: in vivo
Description: Eight-week-old (week 0) male C57BL/6J mice (total 4 groups, n=7) were fed a high-fat diet and tap water (control) or D-psicose-containing water, or antibiotics in addition to these (Control+Abx, D-psicose+Abx). During the experimental period, the body weight of the mice, the water intake, and the food intake were measured weekly, and the feces were collected. The samples at weeks 0 and 5 were used for analysis. The fasting blood glucose level was measured at week 9. The mice were dissected after 11 weeks.
(§2) The average (g) of the body weight gain at week 5 (13 weeks old) from start of rearing (8 weeks old) is shown (n =7). The error bars represent standard deviations (SDs). Control (white): high-fat diet+tap water, D-psicose (black): high-fat diet +5.0% D-psicose, Abx−: without antibiotic treatment, Abx+: with antibiotic treatment. The antibiotics were 0.1% ampicillin sodium, 0.1% neomycin sulfate, and 0.05% vancomycin hydrochloride. The Student's t-test was used in significance testing. A p-value of 0.05 or less is considered significant and indicated by*in the figure.
as §2, with “15-hour fasting blood glucose level (mg/dl)” for “average (g) of the body weight gain”, “9 after” for “5 (13 weeks old) from”, “rearing” for “rearing (8 weeks old)”, “(n=7).” for “(n =7).”
as §1, with “old. For food, the mice in all groups were freely fed a high-fat diet HFD32 (CLEA Japan, Inc.).” for “old.”

O=C(CO)[C@H](O)[C@H](O)[C@H](O)CO [D-psicose]
growth (relative abundance) of the intestinal microbe, genus Atopobium, in feces [1]: significantly grows | body weight gain due to the intake of high-fat diet ([2]; 5.0% (w/v) D-psicose in drinking water, without antibiotic treatment, week 5, vs tap water control (FIG. 2)): significantly suppresses the body weight gain | suppression of body weight gain ([2]; 5.0% D-psicose water plus antibiotics (0.1% ampicillin sodium, 0.1% neomycin sulfate, 0.05% vancomycin hydrochloride), intestinal microbes removed (FIG. 2)): not observed | fasting blood glucose level, difference between groups ([2]; 5.0% D-psicose water plus antibiotics vs tap water plus antibiotics, 15-hour fasting, week 9 (FIG. 3)): no significant difference | fasting blood glucose level ([2]; 5.0% D-psicose water, without antibiotics, 15-hour fasting, week 9, vs tap water control (FIG. 3)): significantly reduces the blood glucose level
